Test results taken from patent EP0076973A1, “A new dioxolanic compound and its method of preparation; a new dioxolanic amine with pharmacological activity, its method of preparation, and the pharmaceutical compositions containing them” (Investigacion Tecnica y Aplicada, S.A., priority 1981, dated 1983).
Counter-ions that a name gives are not always drawn. Like-named read-outs stand apart in the source and are kept apart here.

Experiments:
[1] = system: male NMRI mouse; experiment: Anti-arrythmic activity: fibrillation by chloroform in the mouse; assay type: in vivo; settings: for ED50: Mus musculus
Excerpt: Tables 5 and 6 show the anti-arrithmic activity of the ITA 362 in the male NMRI mouse by oral and intraperitoneal route using the fibrillation test by chloroform in the mouse. […] The activity of the two forms of maleate described in the example 2 were studied and which in the table are subtitled as isomer A corresponding to the first fraction obtained in the aforementioned example, and isomer B corresponding to the second fraction.

[2] = system: hind quarters of rats; experiment: Vasodilatory activity: perfusion of the hindquarters of rats with a hyperpotasemic solution; assay type: in vivo, rat; design: ED 25: unit not given here
Excerpt: In the table 3 is shown the results of the vasodilatory activity of the ITA 362 in the perfusion test of the hindquarters of rats with a hyperpotasemic solution. (F.N.Fastier, F.M. Smirk. Jl. Pharmacolog. Exp. Therapy. 89. 256, 1947).

[3] = Acute toxicity (LD50, method of Litchfield and Wilcoxon) in the rat; settings: in vivo
Protocol: (§1) The respective lethal dose 50 was calculated according to the method of Litchfield and Wilcoxon (Jl. Pharmacol. Exptl. 96 99, 1949 ).

[4] = Acute toxicity (LD50, method of Litchfield and Wilcoxon) in the mouse; settings: in vivo
Protocol: as §1

[5] = system: conscious dog; experiment: Anti-angina activity: amplitude increase protection of the T wave by vasopression in the conscious dog; assay type: in vivo
Excerpt: The antiangina activity was also compared with that of the nitroglycerine by means of the amplitude increase protection test of the T wave for vasopression in the conscious dog. ( A.Lindner, M.London, G.Werner, Scheiz. Med.
Wsohr. 83-,- 360, 1953; J.Papp, L. Szekeres. Arch. Int. Pharmacodyn. 160, 1, 1966 ).

[6] = ip, no unit given for ED50 (doses in mg/kg), read-out: ED50 and confidence limits p < 0,05
[7] = po, no unit given for ED50 (doses in mg/kg), (*) = calculation of limits is not possible, read-out: ED50 and confidence limits p<0,05
[8] = ip, intraperitoneal administration, read-out: LD50 and confidence limits
[9] = oral administration, read-out: LD50

Row | Compound | ED50 [1, 6] [mg/kg] | % protection versus fibrillation ([1]; i.p. 25 mg/kg) [%] | % protection versus fibrillation ([1]; i.p. 50 mg/kg, 50 mg/kg) [%] | % protection versus fibrillation ([1]; i.p. 100 mg/kg, 100 mg/kg) [%] | % protection versus fibrillation ([1]; i.p. 12,5 mg/kg) [%] | % protection versus fibrillation ([1]; p.o. 25 mg/kg, 25 mg/kg) [%] | % protection versus fibrillation ([1]; p.o. 50 mg/kg, 50 mg/kg) [%] | % protection versus fibrillation ([1]; p.o. 100 mg/kg, 100 mg/kg) [%] | % protection versus fibrillation ([1]; p.o. 12,5 mg/kg) | ED50 [1, 7] [mg/kg] | % drop in pressure ([2]; concentration 10^-5 g/ml) | % drop in pressure ([2]; concentration 10^-6 g/ml) | % drop in pressure ([2]; concentration 10^-7 g/ml) | % drop in pressure ([2]; concentration 10^-8 g/ml) | % Prot. ([5]; dose i.v. 1 mg/kg, 1 mg/kg) | other results
1 | CCCCNCC1COC(c2ccc(Cl)cc2)(c2cc3ccccc3o2)O1 (single isomer, unassigned) [ITA 362 maleate (isomer A)] | 35.3 | 35 | 60 | 70 | 35 | 35 | 70 | 70 | 25% |  |  |  |  |  |  | 
2 | CCCCNCC1COC(c2ccc(Cl)cc2)(c2cc3ccccc3o2)O1 (single isomer, unassigned) [ITA 362 maleate (isomer B)] |  | 35 | 70 | 95 | 40 | 55 | 45 | 85 | 35% | 27.6 |  |  |  |  |  | ED50 and confidence limits p < 0,05 ([1]; route i.p., no unit given for ED50 (doses in mg/kg)): 24,5 (16,11 37,20)
3 | CCCCNCC1COC(c2ccc(Cl)cc2)(c2cc3ccccc3o2)O1 (stereo not shown) [ITA 362 citrate] | 41.4 | 40 |  |  | 25 |  |  |  | 31,6% | 43.2 | 33,6% | 16,3% | 12,7% | 12,5% |  | ED 25 ([2]; from concentrations 10^-5 to 10^-8 g/ml, correlation r printed in the same cell): 2,61; % protection versus fibrillation ([1]; i.p. 50 mg/kg): 35%; % protection versus fibrillation ([1]; i.p. 100 mg/kg): 84,2%; % protection versus fibrillation ([1]; p.o. 25 mg/kg): 45%; % protection versus fibrillation ([1]; p.o. 50 mg/kg): 55%; % protection versus fibrillation ([1]; p.o. 100 mg/kg): 55%; % protection versus fibrillation ([1]; p.o. 3,125 mg/kg): 10%; % protection versus fibrillation ([1]; p.o. 6,25 mg/kg): 42,1%
4 | CCCCNCC1COC(c2ccc(Cl)cc2)(c2cc3ccccc3o2)O1 (stereo not shown) [ITA 362 maleate, 2-(2'-benzofuranil) -4-butylaminomethyl--2-p-chlorophenyl-1,3-dioxolane, maleate] |  |  |  |  |  |  |  |  |  |  |  |  |  |  | 46,8% | LD50 [3, 8]: 105 mg/kg; LD50 [3, 9]: > 4000 mg/kg; LD50 [4, 8]: 106 mg/kg; LD50 [4, 9]: > 4000 mg/kg; Control quot. treatment ([5]; dose i.v. 1 mg/kg): 1,893
5 | CCCCNCC1COC(c2ccc(Cl)cc2)(c2cc3ccccc3o2)O1 (stereo not shown) [ITA 362, 2-(2' -benzofuranil)-4-n-butylaminomethyl-2-p-chlorophenyl-1,3-dioxolane] |  |  |  |  |  |  |  |  |  |  |  |  |  |  | ~50% | 
6 | O=[N+]([O-])OCC(CO[N+](=O)[O-])O[N+](=O)[O-] [Nitro-glycerine, nitroglycerine, reference compound] |  |  |  |  |  |  |  |  |  |  | 25,4% | 24,7% | 17,5% | 10,9% |  | % Prot. ([5]; dose i.v. 0,4 mg/kg): 28,9%; Control quot. treatment ([5]; dose i.v. 0,4 mg/kg): 1,520
